≈ marks a conversion by molar mass, not a printed value.
How the values were obtained:
Test in all cases: In vitro antibacterial evaluation: minimum inhibitory concentration (MIC), broth dilution method
Format in all cases: cell-based
[1] = system: Enterococcus sp.; settings: 18 hours at 35° C.
Outline: (§1)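 Broth dilution per NCCLS M7-A2 in Muller-Hinton II […], inoculum 5×10^5 CFU/mL, antibiotic tested over 64-0.06 μg/mL. MIC is taken as the lowest concentration that inhibits growth. Panel includes recent clinical isolates resistant to methicillin, penicillin and/or vancomycin.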

[2] = system: Streptococcus sp.; settings: 18 hours at 35° C.
Outline: as §1

[3] = system: Escherichia coli; settings: 18 hours at 35° C.
Outline: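 Susceptibility determined by NCCLS-recommended broth dilution (M7-A2), Muller-Hinton II […]. Concentration span 64-0.06 μg/mL, inoculum 5×10^5 CFU/mL. Isolates include strains resistant to methicillin, penicillin and/or vancomycin.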

[4] = system: Staphylococcus sp.
Outline: as §1

[5] = broth dilution, inoculum 5×10^5 CFU/mL
[6] = Streptococcus agalactiae (GC 4564)
[7] = Streptococcus pneumoniae (ATCC 6301)
[8] = Streptococcus pneumoniae (GC 1894)
[9] = Streptococcus pneumoniae (GC 4565)
[10] = Streptococcus pyogenes (GC 4563)

What does the source list for `CC(c1ccccc1)C1NC(=O)CNC(=O)C(CO)NC(=O)C(C(O)C2CN(c3ncccn3)C(=N)N2C2OC(CO)C(O)C(O)C2O)NC(=O)C(C(O)C2CNC(=Nc3ncccn3)N2)NC(=O)C(Cc2ccc(OC3OC(CO)C(OC4OC5COC6(OC5C(O)C4O)C4CC5CC(C4)CC6C5)C(O)C3O)cc2)NC1=O` (stereo not drawn) [Example 228, Di-N-(2-(pyrimidinyl)-cyclo[glycyl-β-methylphenylalanyl-O-[4-O-[4,6-O-(2-adamantylidene)hexopyranosyl]hexopyranosyl]tyrosyl-3-[2-iminoimidazolidin-4-yl]seryl-3-β-hexopyranosyl-2-iminoimidazolidin-4-yl]serylseryl]]?
MIC Enterococcus avium (GC 4558) ([1]; Enterococcus avium (GC 4558)): 8 mg/L (≈ 5.05 µM); MIC Enterococcus faecalis (ATCC 29212) ([1]; Enterococcus faecalis (ATCC 29212)): 32 mg/L (≈ 20.2 µM); MIC Enterococcus faecalis (GC 2242) ([1]; Enterococcus faecalis (GC 2242)): 32 mg/L (≈ 20.2 µM); MIC Enterococcus faecalis (GC 2691) ([1]; Enterococcus faecalis (GC 2691)): 32 mg/L (≈ 20.2 µM); MIC Enterococcus faecalis (GC 3059) ([1]; Enterococcus faecalis (GC 3059)): 32 mg/L (≈ 20.2 µM); MIC Enterococcus faecalis (GC 4552) ([1]; Enterococcus faecalis (GC 4552)): 32 mg/L (≈ 20.2 µM); MIC Enterococcus faecalis (GC 4553) ([1]; Enterococcus faecalis (GC 4553)): 16 mg/L (≈ 10.1 µM); MIC Enterococcus faecalis (GC 4554) ([1]; Enterococcus faecalis (GC 4554)): 32 mg/L (≈ 20.2 µM); MIC Enterococcus faecalis (GC 6189) ([1]; Enterococcus faecalis (GC 6189)): 32 mg/L (≈ 20.2 µM); MIC Enterococcus faecium (GC 2243) ([1]; Enterococcus faecium (GC 2243)): 16 mg/L (≈ 10.1 µM); MIC Enterococcus faecium (GC 4556) ([1]; Enterococcus faecium (GC 4556)): 32 mg/L (≈ 20.2 µM); MIC Enterococcus faecium (GC 4557) ([1]; Enterococcus faecium (GC 4557)): 16 mg/L (≈ 10.1 µM); MIC Enterococcus avium (GC 4558) [1, 5]: 8 mg/L (≈ 5.05 µM); MIC Enterococcus faecalis (ATCC 29212) [1, 5]: 32 mg/L (≈ 20.2 µM); MIC Enterococcus faecalis (GC 2242) [1, 5]: 32 mg/L (≈ 20.2 µM); MIC Enterococcus faecalis (GC 2691) [1, 5]: 32 mg/L (≈ 20.2 µM); MIC Enterococcus faecalis (GC 3059) [1, 5]: 32 mg/L (≈ 20.2 µM); MIC Enterococcus faecalis (GC 4552) [1, 5]: 32 mg/L (≈ 20.2 µM); MIC Enterococcus faecalis (GC 4553) [1, 5]: 16 mg/L (≈ 10.1 µM); MIC Enterococcus faecalis (GC 4554) [1, 5]: 32 mg/L (≈ 20.2 µM); MIC Enterococcus faecalis (GC 6189) [1, 5]: 32 mg/L (≈ 20.2 µM); MIC Enterococcus faecium (GC 2243) [1, 5]: 16 mg/L (≈ 10.1 µM); MIC Enterococcus faecium (GC 4556) [1, 5]: 32 mg/L (≈ 20.2 µM); MIC Enterococcus faecium (GC 4557) [1, 5]: 16 mg/L (≈ 10.1 µM); MIC Streptococcus agalactiae (GC 4564) [2, 6]: 16 mg/L (≈ 10.1 µM); MIC Streptococcus pneumoniae (ATCC 6301) [2, 7]: 8 mg/L (≈ 5.05 µM); MIC Streptococcus pneumoniae (GC 1894) [2, 8]: 8 mg/L (≈ 5.05 µM); MIC Streptococcus pneumoniae (GC 4565) [2, 9]: 8 mg/L (≈ 5.05 µM); MIC Streptococcus pyogenes (GC 4563) [2, 10]: 8 mg/L (≈ 5.05 µM); MIC Streptococcus agalactiae (GC 4564) [2, 5]: 16 mg/L (≈ 10.1 µM); MIC Streptococcus pneumoniae (ATCC 6301) [2, 5]: 8 mg/L (≈ 5.05 µM); MIC Streptococcus pneumoniae (GC 1894) [2, 5]: 8 mg/L (≈ 5.05 µM); MIC Streptococcus pneumoniae (GC 4565) [2, 5]: 8 mg/L (≈ 5.05 µM); MIC Streptococcus pyogenes (GC 4563) [2, 5]: 8 mg/L (≈ 5.05 µM); MIC Escherichia coli (ATCC 25922) ([3]; Escherichia coli (ATCC 25922)): >64 mg/L; MIC Escherichia coli (GC 4559) ([3]; Escherichia coli (GC 4559)): >64 mg/L; MIC Escherichia coli (GC 4560) [3]: 16 mg/L (≈ 10.1 µM); MIC Staphylococcus aureus (ATCC 29213) ([4]; strain ATCC 29213): 32 mg/L (≈ 20.2 µM); MIC Staphylococcus aureus (GC 1131) ([4]; strain GC 1131): 32 mg/L (≈ 20.2 µM); MIC Staphylococcus aureus (GC 3051) ([4]; strain GC 3051): 32 mg/L (≈ 20.2 µM); MIC Staphylococcus aureus (GC 3053) ([4]; strain GC 3053): 32 mg/L (≈ 20.2 µM); MIC Staphylococcus aureus (GC 4541) ([4]; strain GC 4541): 32 mg/L (≈ 20.2 µM); MIC Staphylococcus aureus (GC 4542) ([4]; strain GC 4542): 32 mg/L (≈ 20.2 µM); MIC Staphylococcus aureus-SMITH (GC 4543) ([4]; strain GC 4543): 32 mg/L (≈ 20.2 µM); MIC Staphylococcus aureus (GC 4544) ([4]; strain GC 4544): 32 mg/L (≈ 20.2 µM); MIC Staphylococcus aureus (GC 4545) ([4]; strain GC 4545): 32 mg/L (≈ 20.2 µM); MIC Staphylococcus haemolyticus (GC 4546) ([4]; strain GC 4546): 16 mg/L (≈ 10.1 µM); MIC Coagulase Negative Staphylococcus (GC 4547) ([4]; strain GC 4547): 16 mg/L (≈ 10.1 µM); MIC Coagulase Negative Staphylococcus (GC 4548) ([4]; strain GC 4548): 16 mg/L (≈ 10.1 µM); MIC Coagulase Negative Staphylococcus (GC 4549) ([4]; strain GC 4549): 16 mg/L (≈ 10.1 µM); MIC Coagulase Negative Staphylococcus (GC 4551) ([4]; strain GC 4551): 16 mg/L (≈ 10.1 µM)

How did the “MIC Enterococcus faecium (GC 4557)” value ([1]; Enterococcus faecium (GC 4557)) turn out when `COc1ccc2cc(COC3C(OC4C(CO)OC(Oc5ccc(CC6NC(=O)C(C(C)c7ccccc7)NC(=O)CNC(=O)C(CO)NC(=O)C(C(O)C7CNC(=N)N7C7OC(CO)C(O)C(O)C7O)NC(=O)C(C(O)C7CNC(=N)N7)NC6=O)cc5)C(O)C4O)OC(CO)C(O)C3O)ccc2c1` (stereo not drawn) [Example 230c, Cyclo[glycyl-β-methylphenylalanyl-O-[4-O-[2-O-[(6-methoxy-2-naphthyl)methyl]hexopyranosyl]hexopyranosyl]tyrosyl-3-(2-iminoimidazolidin-4-yl)seryl-3-(3-hexopyranosyl-2-iminoimidazolidin-4-yl)serylseryl]] was run?
The value was 32 mg/L (≈ 21.8 µM).

And the “MIC Enterococcus faecium (GC 4557)” value [1, 5]?
The value was 32 mg/L (≈ 21.8 µM).

And the “MIC Streptococcus agalactiae (GC 4564)” value [2, 6]?
Its value is 32 mg/L (≈ 21.8 µM).

What about the “MIC Streptococcus pneumoniae (ATCC 6301)” value [2, 7] of the same molecule?
Its value is 32 mg/L (≈ 21.8 µM).

What about the “MIC Streptococcus pneumoniae (GC 1894)” value [2, 8] of the same molecule?
Its value is 16 mg/L (≈ 10.9 µM).

And the “MIC Streptococcus pneumoniae (GC 4565)” value [2, 9]?
Its value is 32 mg/L (≈ 21.8 µM).

And the “MIC Streptococcus pyogenes (GC 4563)” value [2, 10]?
Its value is 64 mg/L (≈ 43.7 µM).

What about the “MIC Streptococcus agalactiae (GC 4564)” value [2, 5] of the same molecule?
The value was 32 mg/L (≈ 21.8 µM).

And the “MIC Streptococcus pneumoniae (ATCC 6301)” value [2, 5]?
Its value is 32 mg/L (≈ 21.8 µM).

What about the “MIC Streptococcus pneumoniae (GC 1894)” value [2, 5] of the same molecule?
The value was 16 mg/L (≈ 10.9 µM).

What about the “MIC Streptococcus pneumoniae (GC 4565)” value [2, 5] of the same molecule?
The value was 32 mg/L (≈ 21.8 µM).

What about the “MIC Streptococcus pyogenes (GC 4563)” value [2, 5] of the same molecule?
The value was 64 mg/L (≈ 43.7 µM).

What about the “MIC Escherichia coli (GC 4560)” value [3] of the same molecule?
Its value is 32 mg/L (≈ 21.8 µM).

And the “MIC Coagulase Negative Staphylococcus (GC 4547)” value ([4]; Coagulase Negative Staphylococcus (GC 4547), 18 hours at 35° C.)?
The value was 64 mg/L (≈ 43.7 µM).

What about the “MIC Coagulase Negative Staphylococcus (GC 4548)” value ([4]; Coagulase Negative Staphylococcus (GC 4548), 18 hours at 35° C.) of the same molecule?
The value was 64 mg/L (≈ 43.7 µM).

And the “MIC Coagulase Negative Staphylococcus (GC 4549)” value ([4]; Coagulase Negative Staphylococcus (GC 4549), 18 hours at 35° C.)?
The value was 64 mg/L (≈ 43.7 µM).

What about the “MIC Coagulase Negative Staphylococcus (GC 4551)” value ([4]; Coagulase Negative Staphylococcus (GC 4551), 18 hours at 35° C.) of the same molecule?
The value was 64 mg/L (≈ 43.7 µM).

What about the “MIC Coagulase Negative Staphylococcus (GC 6257)” value ([4]; Coagulase Negative Staphylococcus (GC 6257), 18 hours at 35° C.) of the same molecule?
The value was 32 mg/L (≈ 21.8 µM).

What about the “MIC Staphylococcus aureus (GC 4541)” value ([4]; Staphylococcus aureus (GC 4541), 18 hours at 35° C.) of the same molecule?
The value was 64 mg/L (≈ 43.7 µM).

And the “MIC Staphylococcus aureus-SMITH (GC 4543)” value ([4]; Staphylococcus aureus-SMITH (GC 4543), 18 hours at 35° C.)?
The value was 64 mg/L (≈ 43.7 µM).

And the “MIC Staphylococcus haemolyticus (GC 4546)” value ([4]; Staphylococcus haemolyticus (GC 4546), 18 hours at 35° C.)?
The value was 64 mg/L (≈ 43.7 µM).

Reference: patent publication US8247211B2, “Glycopeptide antibiotics” (American Cyanamid Company, priority 2001, dated 2012)
